{
  "source": "patent US8846643B2",
  "about": "“Phosphonates with reduced toxicity for treatment of viral infections” (The Regents of the University of California, priority 2010, dated 2014)",
  "key": {"[1]": {"test_system": "HCV genotype 1b replicon (BM4-5)", "assay": "anti-HCV activity in genotype 1b replicon (BM4-5)", "format": "cell-based, hepatitis C virus", "conditions": "for EC50: Hepatitis C virus; for Selectivity Index BM4-5 (1b): genotype 1b replicon"}, "[2]": {"test_system": "HCV genotype 2a replicon (JFH-1)", "assay": "anti-HCV activity in genotype 2a replicon (JFH-1)", "format": "cell-based, hepatitis C virus", "conditions": "for EC50: Hepatitis C virus, read-out: EC50 (μM) JFH-1 (2a); for Selectivity Index JFH-1 (2a): genotype 2a replicon"}, "[3]": {"test_system": "HIV-1", "conditions": "for anti-HIV activity (in words): HIV-1 infected MT-2 cells"}, "[4]": {"test_system": "MT-2 cells", "assay": "cytotoxicity in MT-2 cells", "conditions": "MT-2 cells"}, "[5]": {"test_system": "HIV-1", "assay": "microbe, parasite or virus in culture"}, "[6]": {"test_system": "Huh 7.5 cells", "assay": "cytotoxicity (CC50) in HCV replicon cells / Huh 7.5 liver cells", "conditions": "cytotoxicity in replicon cells"}, "[7]": {"conditions": "BM4-5, read-out: EC50 (μM) BM4-5(1b)"}, "[8]": {"conditions": "Human immunodeficiency virus 1, MT2, MT-2 cells infected with HIV-1"}, "[9]": {"conditions": "Human immunodeficiency virus 1, MT2"}, "[10]": {"conditions": "BM4-5, read-out: EC50 values, range"}},
  "note": "Like-named read-outs stand apart in the source and are kept apart here.",
  "data": [
    {"smiles": "CCCCCCCCCCCCCCCCOCCCOP(=O)(O)COC(COCC)Cn1cnc2c(N)ncnc21", "note": "(racemic) [Cmpd 18, hexadecyloxypropyl 9-(R,S)-[3-ethoxy-2-(phosphonomethoxy)propyl]adenine]", "values": [
      {"measurement": "EC50", "setting": "[1]; [7]", "value": 7.59, "unit": "µM"},
      {"measurement": "EC50", "setting": "[2]", "value": 8.87, "unit": "µM"},
      {"measurement": "anti-HIV activity (in words)", "setting": "[3]", "value": "loss of antiviral activity"},
      {"measurement": "CC50", "setting": "[4]", "value": "23.6 ± 7.1", "unit": "µM"},
      {"measurement": "EC50", "setting": "[5]; [8]", "value": "> 10", "unit": "µM"},
      {"measurement": "CC50", "setting": "[6]", "value": "99 ± 0.5", "unit": "µM"}
    ]},
    {"smiles": "CCCCCCCCCCCCCCCCOCCCOP(=O)(O)COC(COC(C)C)Cn1cnc2c(N)ncnc21", "note": "(racemic) [Cmpd 19, hexadecyloxypropyl 9-(R,S)-[3-isopropoxy-2-(phosphonomethoxy)propyl]adenine]", "values": [
      {"measurement": "EC50", "setting": "[1]; [7]", "value": "51.2 ± 38.2", "unit": "µM"},
      {"measurement": "EC50", "setting": "[2]", "value": "98.8 ± 20.8", "unit": "µM"},
      {"measurement": "anti-HIV activity (in words)", "setting": "[3]", "value": "loss of antiviral activity"},
      {"measurement": "CC50", "setting": "[4]", "value": "30.3 ± 12.5", "unit": "µM"},
      {"measurement": "EC50", "setting": "[5]; [8]", "value": "> 10", "unit": "µM"},
      {"measurement": "CC50", "setting": "[6]", "value": "100 ± 20.8", "unit": "µM"}
    ]},
    {"smiles": "CCCCCCCCCCCCCCCCOCCCOP(=O)(O)COC(COCC)Cn1cnc2c(N)nc(N)nc21", "note": "(racemic) [Cmpd 26, Hexadecyloxypropyl (R,S)-9-[3-ethoxy-2-phosphonomethoxy)propyl-2,6-diaminopurine]", "values": [
      {"measurement": "EC50", "setting": "[1]; [7]", "value": "18.2 ± 7.09", "unit": "µM"},
      {"measurement": "Selectivity Index BM4-5 (1b)", "setting": "[1]", "value": ">8.2"},
      {"measurement": "EC50", "setting": "[2]", "value": "19.5 ± 1.48", "unit": "µM"},
      {"measurement": "Selectivity Index JFH-1 (2a)", "setting": "[2]", "value": ">7.69"},
      {"measurement": "anti-HIV activity (in words)", "setting": "[3]", "value": "large loss of anti-HIV activity"},
      {"measurement": "CC50", "setting": "[4]", "value": "30.7 ± 11.7", "unit": "µM"},
      {"measurement": "EC50", "setting": "[5]; [8]", "value": "> 10", "unit": "µM"},
      {"measurement": "CC50", "setting": "[6]", "value": "> 150", "unit": "µM"}
    ]},
    {"smiles": "CCCCCCCCCCCCCCCCCCOCCOP(=O)(O)CO[C@@H](COC)Cn1cnc2c(N)ncnc21", "note": "[Cmpd 16, Octadecyloxyethyl (R)-9-[(3-methoxy-2-phosphonomethoxy)propyl]adenine]", "values": [
      {"measurement": "EC50", "setting": "[1]; [7]", "value": 4.65, "unit": "µM"},
      {"measurement": "EC50", "setting": "[2]", "value": 5.33, "unit": "µM"},
      {"measurement": "anti-HIV activity (in words)", "setting": "[3]", "value": "considerably less active and selective"},
      {"measurement": "EC50", "setting": "[5]; [8]", "value": "4.8 ± 3", "unit": "µM"},
      {"measurement": "CC50", "setting": "[6]", "value": "> 150", "unit": "µM"}
    ]},
    {"smiles": "CCCCCCCCCCCCCCCCCCOCCOP(=O)(O)CO[C@H](COC)Cn1cnc2c(N)nc(N)nc21", "note": "[Cmpd 23, Octadecyloxyethyl (S)-9-[(3-methoxy-2-phosphonomethoxy)propyl]2,6-diaminopurine]", "values": [
      {"measurement": "EC50", "setting": "[1]; [7]", "value": "20.1 ± 1.98", "unit": "µM"},
      {"measurement": "EC50", "setting": "[2]", "value": "21.4 ± 1.3", "unit": "µM"},
      {"measurement": "CC50", "setting": "[4]", "value": "18 ± 5.3", "unit": "µM"},
      {"measurement": "EC50", "setting": "[5]; [8]", "value": "0.23 ± 0.15", "unit": "µM"},
      {"measurement": "CC50", "setting": "[6]", "value": "99 ± 13.4", "unit": "µM"}
    ]},
    {"smiles": "CCCCCCCCCCCCCCCCCCOCCOP(=O)(O)CO[C@@H](COC)Cn1cnc2c(N)nc(N)nc21", "note": "[Cmpd 24, Octadecyloxyethyl (R)-9-[(3-methoxy-2-phosphonomethoxy)propyl]2,6-diaminopurine]", "values": [
      {"measurement": "EC50", "setting": "[1]; [7]", "value": "25.6 ± 4.23", "unit": "µM"},
      {"measurement": "EC50", "setting": "[2]", "value": "25.8 ± 6.1", "unit": "µM"},
      {"measurement": "CC50", "setting": "[4]", "value": "19.7 ± 9.5", "unit": "µM"},
      {"measurement": "CC50", "setting": "[6]", "value": "> 150", "unit": "µM"}
    ]},
    {"smiles": "CCCCCCCCCCCCCCCCCCOCCOP(=O)(O)CO[C@H](COC)Cn1cnc2c(=O)[nH]c(N)nc21", "note": "[Cmpd 34, Octadecyloxyethyl (S)-9-[(3-methoxy-2-phosphonomethoxy)propyl]guanine]", "values": [
      {"measurement": "EC50", "setting": "[1]; [7]", "value": 8.26, "unit": "µM"},
      {"measurement": "Selectivity Index BM4-5 (1b)", "setting": "[1]", "value": ">18.2"},
      {"measurement": "EC50", "setting": "[2]", "value": 10.7, "unit": "µM"},
      {"measurement": "Selectivity Index JFH-1 (2a)", "setting": "[2]", "value": ">14.0"},
      {"measurement": "Selectivity Index", "setting": "[3]; MT-2 cells, HIV-1", "value": 125},
      {"measurement": "CC50", "setting": "[4]", "value": "25 ± 13", "unit": "µM"},
      {"measurement": "EC50", "setting": "[5]; [9]", "value": 0.2, "unit": "µM"}
    ]},
    {"smiles": "CCCCCCCCCCCCCCCCCCOCCOP(=O)(O)CO[C@@H](COC)Cn1cnc2c(=O)[nH]c(N)nc21", "note": "[Cmpd 35, Octadecyloxyethyl (R)-9-[(3-methoxy-2-phosphonomethoxy)propyl]guanine]", "values": [
      {"measurement": "EC50", "setting": "[1]; [7]", "value": 12.6, "unit": "µM"},
      {"measurement": "Selectivity Index BM4-5 (1b)", "setting": "[1]", "value": ">11.9"},
      {"measurement": "EC50", "setting": "[2]", "value": 12.4, "unit": "µM"},
      {"measurement": "Selectivity Index JFH-1 (2a)", "setting": "[2]", "value": ">12.1"},
      {"measurement": "CC50", "setting": "[4]", "value": 44, "unit": "µM"},
      {"measurement": "EC50", "setting": "[5]; [9]", "value": "< 1e-05", "unit": "µM"},
      {"measurement": "CC50", "setting": "[6]", "value": "> 150", "unit": "µM"}
    ]},
    {"smiles": "CCCCCCCCCCCCCCCCOCCCOP(=O)(O)CO[C@H](COC)Cn1cnc2c(OC)ncnc21", "note": "[Cmpd 43, Hexadecyloxypropyl (S)-9-[(3-methoxy-2-phosphonomethoxy)propyl]-6-methoxypurine]", "values": [
      {"measurement": "EC50", "setting": "[1]; [7]", "value": "8.9 ± 1.22", "unit": "µM"},
      {"measurement": "EC50", "setting": "[1]; [10]", "value": "8.9 to 12.5", "unit": "µM"},
      {"measurement": "EC50", "setting": "[2]", "value": "12.5 ± 3.36", "unit": "µM"},
      {"measurement": "CC50", "setting": "[4]", "value": "22 ± 3.5", "unit": "µM"},
      {"measurement": "EC50", "setting": "[5]; [9]", "value": "> 10", "unit": "µM"},
      {"measurement": "CC50", "setting": "[6]", "value": "> 150", "unit": "µM"}
    ]},
    {"smiles": "CCCCCCCCCCCCCCCCOCCCOP(=O)(O)CO[C@H](COC)Cn1cnc2c(OC)nc(N)nc21", "note": "[Cmpd 44, Hexadecyloxypropyl (S)-9-[(3-methoxy-2-phosphonomethoxy)propyl]-6-O-methylguanine]", "values": [
      {"measurement": "EC50", "setting": "[1]; [7]", "value": "18.1 ± 0.27", "unit": "µM"},
      {"measurement": "EC50", "setting": "[1]; [10]", "value": "18 to 26", "unit": "µM"},
      {"measurement": "EC50", "setting": "[2]", "value": "17.4 ± 0.3", "unit": "µM"},
      {"measurement": "CC50", "setting": "[4]", "value": "34.3 ± 7.6", "unit": "µM"},
      {"measurement": "EC50", "setting": "[5]; [9]", "value": "> 10", "unit": "µM"},
      {"measurement": "CC50", "setting": "[6]", "value": "> 150", "unit": "µM"}
    ]}
  ]
}
